Experimental data published in patent US20060193804A1, “Haircare use of cyclic amine derivatives” (L'OREAL, priority 2005, published 2006).

System: human striated muscle cells innervated with explants of rat embryonic spinal ganglia and spinal cord
Experiment: nerve/muscle coculture model: frequency of muscle fiber contractions
Type: cell-based
Conditions: for inhibition at 10 µM: Homo sapiens, concentration of 10^−5 M, contractions counted over 30 seconds after incubation for 60 seconds, read-out: inhibition of the frequency of contraction of the muscle fibers
Description: Compounds 1 and 2 were tested at a given concentration, on a model of nerve/muscle coculture, which makes it possible to recreate a motor arc by innervating human striated muscle cells with explants of rat embryonic spinal ganglia and spinal cord.
This test is predictive of an inhibitory effect on muscle fiber contractions.
The protocol adopted is as follows:
Human myoblasts (primary culture of human muscle cells, M1b) were inoculated in 24-well plates. The culture medium is a mixture of ⅔ MEM (Invitrogen 21090-022), ⅓ M199 (Invitrogen 31153-026) and 5% FCS. At confluence, spinal cord explants from 13-day-old rat embryos are placed on the primary culture. The first contractions of the muscle fibers are observed after one week of coculture. After three weeks, these muscle fibers are striated and have mature differentiated neuromuscular junctions.
The products are tested in triplicate (3 fibers analysed) at two concentrations. For each culture well, a muscle fiber having regular contractions (>60 contractions per minute) is selected and the number of contractions is counted over 30 seconds. The test product is then added to the culture medium under a microscope without moving the microscope stage. After incubation for 60 seconds, the number of contractions is again counted over 30 seconds. The whole experiment is recorded using a digital camera. The videos are saved on an electronic medium.

| Compound | dose-response effect on contraction of the muscle fibers | inhibition at 10 µM [%] |
| --- | --- | --- |
| c1ccc(CCCCN2CCC(c3ccccc3)CC2)cc1 [Compound 1] | induces a dose-response effect | 50 |
| c1ccc(CCCC2CCN(CCCc3ccccc3)CC2)cc1 [Compound 2] | – | ~55 |
